We go through 15 compounds from US20070021434A1, “NON-NUCLEOSIDE ANTI-HEPACIVIRUS AGENTS AND USES THEREOF” (Migenix Inc., priority 2005, published 2007).

Like-named read-outs stand apart in the source and are kept apart here.

One experiment addresses T1, HCV RdRp (Hepatitis C virus genotype 1b, UniProt P26663).
T1 construct: The HCV encoded RNA-dependent RNA polymerase (HCV RdRp), also known as non-structural protein 5B (NS 5B)
Particulars: literature value; read-out: Published IC50; cited from earlier work.

Experiment [1] concerns the target T2, NS5B (Replizyme, UK), HCV genotype 1b Δ21 RdRp (UniProt P26663).
T2 construct: other: Replizyme enzyme
It counts as biochemical, hepatitis C virus. Here is the method:
(§1) An RNA-dependant RNA polymerase assay was performed in a 96-well round bottom polypropylene plates (Costar) with a 50 μl reaction volume containing 20 mM HEPES pH 7.2-7.5 (Gibco), 1 mM DTT (Sigma), 0.4 mM MnCl2 (Sigma), 70 nM RNA template-primer PolyA (Amersham)-Oligo dT(20) biotin labelled (Roche), 20 μM UTP (Roche), 5U RNasin (Promega), 50 mM NaCl (Ambion), 4 μM DIG-11-UTP (Roche), test compound at desired concentration, 5% DMSO and 50-80 ng NS5B (Replizyme(V, UK) or 200-500 ng of recombinant NS5BA21 HCV RdRp enzyme. After 1 hour incubation at 30° C, the reaction is stopped by the addition of 5 μl 0.5 M EDTA and the solution is transferred to a streptavidin coated 96 well plate (Roche). Standard ELISA detection using Anti DIG-POD antibody (Roche) and BM Blue substrate is applied before measuring Abs at 450 nm. An illustration of the assay can be found in FIG. 1.

The target of experiment [2] is recombinant NS5BΔ21 HCV RdRp enzyme (genotype 1b, produced in-house) (UniProt P26663). Description: RdRp assay with ELISA, recombinant in-house enzyme. It counts as biochemical, hepatitis C virus. Particulars: read-out: Experimental IC50, Recombinant. Here is the method: as §1
(An ELISA detects its analyte on a solid surface through an enzyme-linked reagent.)

The test system of experiment [3] is NS5B (Replizyme, UK), HCV genotype 1b Δ21 RdRp. It counts as biochemical, hepatitis C virus. The procedure: as §1
The subject of experiment [4] is Huh-7 cells, genotype 1b HCV replicon. Description: Inhibition of HCV replication in cell culture, genotype 1b replicon. It counts as cell-based, hepatitis C virus. To be noted: for EC50: Huh-7, genotype 1b replicon, intracellular HCV RNA 24 h after 3 daily doses; for Selectivity Index (CC50/EC50): genotype 1b replicon, CC50 by neutral red uptake. Here is the method:
(§2) Test compounds were solubilized at 30 mM in 100% tissue culture grade DMSO (Sigma, Inc.). Aliquots of test compounds sufficient for one daily treatment were made in individual tubes and all material was stored at −20° C. On each day of treatment, daily aliquots of the test compounds were suspended in culture medium at room temperature and immediately added to the cell cultures. Compounds were added to dividing cultures once daily for three days at concentrations ranging from about 30 μM to about 0.0003 μM. Media was changed with each addition of compound. The assays were started when cell cultures were at about 30-50% confluence, and the cells reached confluence during the last day of treatment. The assays included untreated control cultures (six total), and triplicate cultures treated with α-interferon and ribavirin as positive antiviral and toxicity controls.
(§3) Intracellular HCV RNA levels and cytotoxicity were assessed in triplicate 24 hours after the last compound dose.
(In general: A replicon is a self-replicating genome or part of one, used to study replication in cells.)

The next experiment has as its target HCV RdRp (NS5B) (UniProt P26663). It counts as biochemical, hepatitis C virus.
Experiment [5] concerns Huh-7 cells, sub-genomic genotype 1a HCV replicon H/SG-Neo. Description: Inhibition of HCV replication in cell culture, genotype 1a replicon. It counts as cell-based, hepatitis C virus. Particulars: for EC50: Huh-7, genotype 1a replicon, intracellular HCV RNA 24 h after 3 daily doses; for Selectivity Index (CC50/EC50): genotype 1a replicon, CC50 by neutral red uptake. The procedure: as §2, §3

Setting [6] is: read-out: Experimental IC50, Replizyme; Replizyme enzyme.
Where [7] appears, read: Hepatitis C virus, Huh-7, 24 h, read-out: EC50.

Chain of HCV RdRp (NS5B) (P26663 whole entry, looked up): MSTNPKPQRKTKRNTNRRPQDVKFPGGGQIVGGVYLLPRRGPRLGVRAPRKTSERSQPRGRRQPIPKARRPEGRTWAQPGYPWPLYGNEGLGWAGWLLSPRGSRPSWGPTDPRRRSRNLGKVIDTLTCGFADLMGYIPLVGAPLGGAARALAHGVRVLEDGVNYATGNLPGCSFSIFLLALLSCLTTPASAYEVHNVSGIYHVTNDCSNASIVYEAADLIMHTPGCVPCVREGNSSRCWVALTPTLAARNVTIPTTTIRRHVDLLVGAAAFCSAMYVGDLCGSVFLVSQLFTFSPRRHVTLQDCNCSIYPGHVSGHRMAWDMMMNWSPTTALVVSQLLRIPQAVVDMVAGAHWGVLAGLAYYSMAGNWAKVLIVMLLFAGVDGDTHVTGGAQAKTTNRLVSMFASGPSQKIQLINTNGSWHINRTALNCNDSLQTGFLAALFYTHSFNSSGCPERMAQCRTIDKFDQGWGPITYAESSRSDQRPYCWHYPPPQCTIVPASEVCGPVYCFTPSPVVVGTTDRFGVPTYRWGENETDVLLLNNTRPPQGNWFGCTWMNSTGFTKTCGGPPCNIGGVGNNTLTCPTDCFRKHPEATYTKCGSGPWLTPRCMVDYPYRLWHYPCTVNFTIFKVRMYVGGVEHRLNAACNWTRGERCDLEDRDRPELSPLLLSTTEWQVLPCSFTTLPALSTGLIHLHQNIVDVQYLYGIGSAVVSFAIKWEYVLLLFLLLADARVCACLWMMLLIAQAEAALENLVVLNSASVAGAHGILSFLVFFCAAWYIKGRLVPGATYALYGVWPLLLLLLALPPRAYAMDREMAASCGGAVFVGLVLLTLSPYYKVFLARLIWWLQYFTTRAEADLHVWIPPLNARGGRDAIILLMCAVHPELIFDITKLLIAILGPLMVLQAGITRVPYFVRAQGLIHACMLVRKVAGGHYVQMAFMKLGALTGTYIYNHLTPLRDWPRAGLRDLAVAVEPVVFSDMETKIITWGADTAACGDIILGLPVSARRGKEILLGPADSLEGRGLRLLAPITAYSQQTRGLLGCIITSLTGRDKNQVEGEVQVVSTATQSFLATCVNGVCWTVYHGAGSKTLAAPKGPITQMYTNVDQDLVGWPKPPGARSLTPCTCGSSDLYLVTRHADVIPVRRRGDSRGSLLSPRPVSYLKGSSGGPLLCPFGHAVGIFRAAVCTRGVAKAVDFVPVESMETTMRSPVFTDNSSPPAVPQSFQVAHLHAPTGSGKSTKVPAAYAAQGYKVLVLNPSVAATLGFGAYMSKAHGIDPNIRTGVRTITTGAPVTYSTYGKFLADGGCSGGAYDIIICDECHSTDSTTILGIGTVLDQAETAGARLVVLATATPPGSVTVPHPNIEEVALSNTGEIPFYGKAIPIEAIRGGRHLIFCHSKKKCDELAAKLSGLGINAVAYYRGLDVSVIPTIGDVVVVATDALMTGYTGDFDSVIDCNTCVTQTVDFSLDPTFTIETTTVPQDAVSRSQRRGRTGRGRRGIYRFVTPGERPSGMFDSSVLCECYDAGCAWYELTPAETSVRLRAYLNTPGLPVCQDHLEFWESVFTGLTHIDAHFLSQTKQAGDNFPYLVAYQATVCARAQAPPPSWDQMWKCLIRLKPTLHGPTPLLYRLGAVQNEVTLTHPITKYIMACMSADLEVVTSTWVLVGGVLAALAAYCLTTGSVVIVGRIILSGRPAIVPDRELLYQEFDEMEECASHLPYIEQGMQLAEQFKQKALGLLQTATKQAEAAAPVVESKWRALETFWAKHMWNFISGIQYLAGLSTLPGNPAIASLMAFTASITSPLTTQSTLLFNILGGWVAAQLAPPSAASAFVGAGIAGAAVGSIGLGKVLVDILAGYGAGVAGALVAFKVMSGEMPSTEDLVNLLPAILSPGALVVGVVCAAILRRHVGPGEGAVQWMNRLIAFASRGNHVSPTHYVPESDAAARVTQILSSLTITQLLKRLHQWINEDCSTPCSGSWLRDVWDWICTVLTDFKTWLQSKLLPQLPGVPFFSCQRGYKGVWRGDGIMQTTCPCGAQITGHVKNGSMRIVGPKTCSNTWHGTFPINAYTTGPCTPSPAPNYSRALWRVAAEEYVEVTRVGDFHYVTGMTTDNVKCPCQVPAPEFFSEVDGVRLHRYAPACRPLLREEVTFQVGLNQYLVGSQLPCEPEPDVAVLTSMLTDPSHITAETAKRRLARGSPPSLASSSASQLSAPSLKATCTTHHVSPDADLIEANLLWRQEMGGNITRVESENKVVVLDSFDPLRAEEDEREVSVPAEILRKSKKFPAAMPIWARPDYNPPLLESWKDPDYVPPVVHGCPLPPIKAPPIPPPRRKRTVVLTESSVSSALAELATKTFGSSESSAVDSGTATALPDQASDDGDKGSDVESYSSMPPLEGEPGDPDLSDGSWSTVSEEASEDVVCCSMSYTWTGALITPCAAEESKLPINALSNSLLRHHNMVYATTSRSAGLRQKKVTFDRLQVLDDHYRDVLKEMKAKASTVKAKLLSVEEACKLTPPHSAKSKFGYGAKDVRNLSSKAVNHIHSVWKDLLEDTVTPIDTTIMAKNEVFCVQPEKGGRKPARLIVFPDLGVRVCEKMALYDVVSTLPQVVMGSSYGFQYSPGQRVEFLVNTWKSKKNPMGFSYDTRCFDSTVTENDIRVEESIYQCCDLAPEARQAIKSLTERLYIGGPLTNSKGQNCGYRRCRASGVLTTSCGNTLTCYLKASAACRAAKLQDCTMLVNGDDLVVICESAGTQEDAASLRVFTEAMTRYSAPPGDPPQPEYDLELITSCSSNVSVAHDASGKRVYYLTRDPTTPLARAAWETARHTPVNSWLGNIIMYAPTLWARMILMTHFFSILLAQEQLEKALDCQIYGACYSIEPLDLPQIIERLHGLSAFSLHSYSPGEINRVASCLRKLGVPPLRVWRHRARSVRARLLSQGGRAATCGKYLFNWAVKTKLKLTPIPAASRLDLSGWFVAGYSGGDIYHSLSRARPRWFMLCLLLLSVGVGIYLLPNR
T1 sequence (P26663 2420-3010): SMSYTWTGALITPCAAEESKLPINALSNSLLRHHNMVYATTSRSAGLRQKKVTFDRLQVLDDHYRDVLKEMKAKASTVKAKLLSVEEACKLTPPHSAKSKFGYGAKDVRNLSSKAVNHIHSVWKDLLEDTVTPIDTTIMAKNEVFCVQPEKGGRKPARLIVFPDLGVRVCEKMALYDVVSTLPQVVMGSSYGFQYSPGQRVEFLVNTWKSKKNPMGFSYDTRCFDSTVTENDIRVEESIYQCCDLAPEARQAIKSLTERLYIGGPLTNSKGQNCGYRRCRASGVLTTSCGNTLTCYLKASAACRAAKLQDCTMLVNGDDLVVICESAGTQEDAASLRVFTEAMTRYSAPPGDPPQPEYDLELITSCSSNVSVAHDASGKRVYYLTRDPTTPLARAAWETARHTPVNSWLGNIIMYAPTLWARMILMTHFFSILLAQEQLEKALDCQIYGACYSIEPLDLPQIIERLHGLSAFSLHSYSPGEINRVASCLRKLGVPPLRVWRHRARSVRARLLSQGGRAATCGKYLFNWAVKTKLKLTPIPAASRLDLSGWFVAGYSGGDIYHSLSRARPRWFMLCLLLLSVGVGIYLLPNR

For `CC(C)Cn1c(=O)c(C2=Nc3ccccc3S(=O)(=O)N2)c(O)c2ccccc21`, the values for the IC50 (at HCV RdRp; in experiment [1] (setting [6]); in experiment [2]) were 0.34 µM, 2.3 µM and 2.8 µM, respectively.
As to `CCCCn1c(=O)c(C2=NS(=O)(=O)c3ccccc3N2)c(O)c2ccccc21`, the half-maximal inhibitory concentration (IC50) (as a rule, the midpoint of a concentration-inhibition curve) on HCV RdRp is 0.24 µM; in experiment [1] (setting [6]) it was 1 µM; in experiment [2], 1.8 µM.
As for `O=C(O)COc1ccc2[nH]cc(C[C@H](NC(=O)c3ccc4c(c3)nc(-c3ccoc3)n4C3CCCCC3)C(=O)O)c2c1`, the IC50 was 1.15 µM on HCV RdRp, 1.3 µM in experiment [1] (setting [6]) and 0.06 µM in experiment [2]. Besides, the “times less inhibition with the Replizyme enzyme than with the prepared enzyme” value in experiment [3] is listed as “about 20”.
Consider `O=C(O)c1ccc2c(c1)nc(-c1ccccn1)n2C1CCCCC1`, for which the half-inhibitory concentration (IC50) on HCV RdRp is 4.36 µM; in experiment [1] (setting [6]) it was 69 µM; in experiment [2], 3.5 µM. The “times less inhibition with the Replizyme enzyme than with the prepared enzyme” value in experiment [3] is given as “about 20”.
Consider `O=c1ccn([C@@H]2O[C@H](COP(=O)(O)OP(=O)(O)OP(=O)(O)O)C[C@H]2O)c(=O)[nH]1` [3′-dUTP], for which the IC50 in experiment [1] (Replizyme enzyme; read-out: Experimental IC50, Replizyme) came to 0.13 µM.
On to `Cc1ccc(NC(=O)[C@H](CCCCN)NC(=O)Nc2ccc(OCc3ccccc3)cc2)cc1` [Compound 2, (S)-6-AMINO-2-[3-(4-BENZYLOXY-PHENYL)-UREIDO]-HEXANOIC ACID P-TOLYLAMIDE], for which the concentration for a half-maximal effect (EC50) in experiment [4] (setting [7]) and in experiment [5] (Hepatitis C virus) was under 0.5 µM throughout. Also, the entries for the “Selectivity Index (CC50/EC50)” value in experiment [4] and in experiment [5] were over 100 and 20 to 100, respectively. On HCV RdRp (NS5B), the IC50 was 10 to 50 µM.
In the case of `Cc1ccc(NC(=O)[C@@H](CCCCN)NC(=O)Nc2ccc(OCc3ccccc3)cc2)cc1` [Compound 172, (R)-6-AMINO-2-[3-(4-BENZYLOXY-PHENYL)-UREIDO]-HEXANOIC ACID P-TOLYLAMIDE], the EC50 – broadly, the concentration needed to bring the measured effect to its halfway point – in experiment [4] (setting [7]) is 0.5 to 2 µM; in experiment [5] (Hepatitis C virus), under 0.5 µM. Further, the “Selectivity Index (CC50/EC50)” value is listed as under 20 in experiment [4] and 20 to 100 in experiment [5]. Further, the IC50 at HCV RdRp (NS5B) was 10 to 50 µM.
Take `Cc1cc2cc(NC(=O)[C@H](CCCCN)NC(=O)Nc3ccc(OCc4ccccc4)cc3)ccc2[nH]1` [Compound 206, (S)-6-AMINO-2-[3-(4-BENZYLOXY-PHENYL)-UREIDO]-HEXANOIC ACID (2-METHYL-1H-INDOL-5-YL)-AMIDE]: the EC50 in experiment [4] (setting [7]) and in experiment [5] (Hepatitis C virus) was over 2 µM in each case. For the same compound, the “Selectivity Index (CC50/EC50)” value in experiment [4] and in experiment [5] was under 20 in each case. This compound also had a concentration for half-maximal inhibition (IC50) on HCV RdRp (NS5B) of 10 to 50 µM.
Consider `Cc1ccc(NC(=O)[C@H](CCCCN)NCc2ccc(NC(=O)Nc3ccncc3)cc2)cc1` [Compound 262, (S)-6-AMINO-2-[4-(3-PYRIDIN-4-YL-UREIDO)-BENZYLAMINO]-HEXANOIC ACID P-TOLYLAMIDE], for which the EC50 in experiment [4] was 2 to 0.5 μM; in experiment [5], under 0.5 µM. On HCV RdRp (NS5B), the IC50 is under 10 µM.
As for `Cc1cc2cc(NC(=O)[C@H](CCCNC(=O)CN)NC(=O)Nc3ccc4c(c3)Cc3ccccc3-4)ccc2[nH]1` [Compound 297, (S)-5-(2-AMINO-ACETYLAMINO)-2-[3-(9H-FLUOREN-2-YL)-UREIDO]-PENTANOIC ACID (2-METHYL-1H-INDOL-5-YL)-AMIDE], the EC50 in experiment [4] (setting [7]) and in experiment [5] (Hepatitis C virus) was under 0.5 µM each time. Further, the “Selectivity Index (CC50/EC50)” value in experiment [4] and in experiment [5] was over 100 throughout. In addition, the half-maximal inhibitory concentration (IC50) on HCV RdRp (NS5B) is under 10 µM.
Turning to `CC1CCC(NC(=O)[C@H](CNC(=O)CN)NC(=O)Nc2ccc(OCc3ccccc3)cc2)CC1` (stereo partly drawn) [Compound 306, (S)-3-(2-AMINO-ACETYLAMINO)-2-[3-(4-BENZYLOXY-PHENYL)-UREIDO]-N-(4-METHYL-CYCLOHEXYL)-PROPIONAMIDE], the EC50 in experiment [4] (setting [7]) is over 2 µM. In experiment [4], the “Selectivity Index (CC50/EC50)” value is under 20. On HCV RdRp (NS5B), this compound registered an IC50 of 10 to 50 µM.
Regarding `NCCCCN(CC(=O)Nc1ccc(C2CCCCC2)cc1)C(=O)Nc1ccc(C=Cc2ccccc2)cc1` [Compound 324, 2-[1-(4-AMINO-BUTYL)-3-(4-STYRYL-PHENYL)-UREIDO]-N-(4-CYCLOHEXYL-PHENYL)-ACETAMIDE], the EC50 in experiment [4] (setting [7]) is over 2 µM. In experiment [4], the “Selectivity Index (CC50/EC50)” value is reported as under 20. On HCV RdRp (NS5B), this compound displayed an IC50 of 10 to 50 µM.
For `Cc1ccc(NC(=O)[C@H](CCCCN)NC(=O)CNc2ccccc2Oc2ccccc2)cc1` [Compound 366, (S)-6-AMINO-2-[2-(2-PHENOXY-PHENYLAMINO)-ACETYLAMINO]-HEXANOIC ACID P-TOLYLAMIDE], in that order: over 2 µM, under 20 and under 10 µM.
The like results for `Cc1ccc(NC(=O)[C@H](CCCCN)NC(=O)CNc2cccc(Oc3ccccc3)c2)cc1` [Compound 367, (S)-6-AMINO-2-[2-(3-PHENOXY-PHENYLAMINO)-ACETYLAMINO]-HEXANOIC ACID P-TOLYLAMIDE] were, in that order, over 2 µM, under 20 and under 10 µM.
The like results for `Cc1ccc(NC(=O)[C@H](CCCCN)NC(=O)CNc2ccc(Oc3ccccc3)cc2)cc1` [Compound 368, (S)-6-AMINO-2-[2-(4-PHENOXY-PHENYLAMINO)-ACETYLAMINO]-HEXANOIC ACID P-TOLYLAMIDE] were, in that order, 0.5 to 2 µM, under 20 and under 10 µM.
